How the values were obtained:
[1] = test system: MM1S cells; assay: Cell viability assay (ATPlite), MM1S; format: cell-based, human; conditions: for EC50: cell viability, three days, ATPlite, NA: inactive under assay conditions
Description: (§1) This assay was used for the H2171 and MM1S cell data shown in Table 2, and for the Jurkat (an immortalized line of human T lymphocyte cells), Ly1 (OCI-Ly1 human non-Hodgkin lymphoma cell line), Ly4 (OCI-Ly4 human non-Hodgkin lymphoma cell line), H2172 (NCI-H2172 human non-small cell lung cancer cell line), and CA-46 (a human Burkitt's lymphoma cell line) cell data shown in Table 3 and FIG. 12. Cells were counted and adjusted to 60,000 cells/mL. Using a Biotek EL406, 50 μL of cells are media were distributed into 384 well white plates from Thermo. Immediately after plating, compound in DMSO was distributed to plates. For large plate sets, cells were returned to 37° C. incubator while not in use.
(§2) Compounds were added to plates using a 100 nL 384 well pin transfer manifold on a Janus workstation. Stocks were arrayed in 10 point quadruplicate dose response in DMSO stock in 384 well Greiner compound plates. After addition of compound, plates were incubated for three days in a 37° C. incubator.
(§3) Cell viability was read out using ATPlite from Perkin Elmer. Plates were removed from the incubator and brought to room temperature prior to use. Lyophilized powder was resuspended in lysis buffer and diluted 1:2 with DI water. 25 μL of this solution was added to each well using the Biotek liquid handler. Plates were sealed with adherent aluminum seals prior to vortexing and spinning down at 1000 g for 1 minute. Plates were incubated for 15 minutes at room temperature before signal was read on an Envision Plate Reader.

[2] = test system: H2171 cells; assay: Cell viability assay (ATPlite), H2171; format: cell-based, human; conditions: cell viability, three days, ATPlite, NA: inactive under assay conditions
Description: as §1, §2, §3

[3] = target: c-Myc/Max/Ebox DNA (Homo sapiens, UniProt P01106); assay: c-Myc/Max/Ebox DNA AlphaScreen assay; format: binding; set-up: An exemplary assay uses full-length human c-Myc and Max proteins; his6 (cleaved yes); made in house; conditions: c-Myc/Max/Ebox DNA AlphaScreen; NA: inactive under assay conditions; read-out: Biochemical IC50
Chain of c-Myc/Max/Ebox DNA (P01106 16-454): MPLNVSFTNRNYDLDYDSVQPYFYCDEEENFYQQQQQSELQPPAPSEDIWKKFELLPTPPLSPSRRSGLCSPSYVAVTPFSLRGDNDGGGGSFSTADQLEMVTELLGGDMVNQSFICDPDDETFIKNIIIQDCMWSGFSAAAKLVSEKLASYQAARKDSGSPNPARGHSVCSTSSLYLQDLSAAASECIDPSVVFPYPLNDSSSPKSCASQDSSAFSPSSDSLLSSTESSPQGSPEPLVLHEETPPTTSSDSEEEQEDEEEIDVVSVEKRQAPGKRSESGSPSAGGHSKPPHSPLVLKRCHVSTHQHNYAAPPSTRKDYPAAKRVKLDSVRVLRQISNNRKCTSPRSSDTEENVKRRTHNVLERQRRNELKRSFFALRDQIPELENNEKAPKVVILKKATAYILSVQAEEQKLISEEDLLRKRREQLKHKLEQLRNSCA
Description: This protocol was used to generate the biochemical data in Table 2 and FIG. 11. The primary AlphaScreen assay is amenable to 384-well and 1536-well plate formats for HTS. Human his6-c-Myc and his6-Max were used with biotinylated DNA containing a single Ebox sequence (biotin[…]) purchased from MWG Operon. Free c-Myc was generated from his6-c-Myc through thrombin cleavage of the his6 tag. For 384-well plate assays, 10 μL of a 2× solution of free c-Myc (25 nM final), Ni++-coated Acceptor Bead (25 μg/ml final), and biotinylated Ebox oligo (10 nM final) were added to 384-well plates with a Biotek EL406 liquid handler. 100 nL of compounds from stock plates were added by pin transfer using a Janus Workstation (PerkinElmer), allowing the compounds to interact with c-Myc prior to c-Myc binding with Max. In the current assay, DMSO was not allowed to exceed 2% v/v of the assay. 10 μl of 2× master mix containing streptavidin-coated donor beads (25 μg/ml final) and his6-Max (1.25 nM final) were added. AlphaScreen measurements were performed on an Envision 2104 (PerkinElmer) utilizing the manufacturer's protocol. The assay can also be performed in 1536-plate format with 8 μL total volume using two 4 μL additions (instead of […] and 10 μL respectively).
Assays are performed with minor modifications from the manufacturer's protocol (PerkinElmer). Both master mixes were made in room temperature assay buffer (50 mM HEPES, 150 mM NaCl, 0.2% w/v BSA, 0.02% w/v Tween20, 40 μg/ml glycogen, 500 μM DTT, pH 8.0, DTT and glycogen added fresh). Alpha beads were added to respective master solutions and wrapped in foil. All subsequent steps were performed in low light conditions. Solution 1: 2× solution of components with final concentrations of cMyc (25 nM), Ni-coated Acceptor Bead (25 μg/ml), and biotinylated Ebox oligo (10 nM). Solution 2: 2× solution of streptavidin-coated donor beads (25 μg/ml final) and his6-Max (1.25 nM final). […] Solution 1 were added to 384-well plate (AlphaPlate-384, PerkinElmer) with Biotek EL406 liquid handler and the plates were centrifuged at 1000 rpm for 1 minute. 100 nL of compounds from stock plates were added by pin transfer using a Janus Workstation. 10 μL Solution 2 were added with the liquid handler. Plates were sealed with foil to block light exposure and prevent evaporation. Plates were centrifuged at 1000 rpm for 1 minute followed by 2 hour incubation. AlphaScreen measurements were performed on an Envision 2104 utilizing the manufacturer's protocol. Excitation was at 680 nm for donor bead release of singlet oxygen and emission was read with a bandpass filter from 520-620 nm. Glycogen: Roche Diagnostics #10901393001. Plate 1536: Perkin Elmer, 6004350. Plate 384: Perkin Elmer, 6005350. Nickel-His Alpha Beads: 6760619R.

SMILES	EC50 ([1]; Homo sapiens, MM1.S, 72 h) [µM]	EC50 ([2]; Homo sapiens, NCI-H2171, 72 h) [µM]	IC50 [3] [µM]	EC50 [1] [µM]	EC50 [2] [µM]	cellular activity/potency in cellular proliferation assay ([1]; MM1.S, prodrug relative to free acid (FIG. 3, FIG. 4))
Cc1ccc(C)n1-c1ccc(C(=O)O)c(Cl)c1 [Compound 6]	208	76.3	81.5			
COC(=O)c1ccc(-n2cccc2)cc1O [Compound 9]	127	229				
Cc1ccc(-c2ccccc2)n1-c1ccc(O)c(C(=O)O)c1 [Compound 12]	79.3	123	61.8			
CCOC(=O)c1ccc(-n2c(C)ccc2-c2ccccc2)cc1 [Compound 13]	69.9	54.4	144			
COC(=O)c1ccccc1-n1c(C)ccc1C [Compound 14]	223	86.3	97.3			
O=C(O)c1ccc(-n2cccc2)cc1O [Compound 16]	130	104	165			
CCCOC(=O)c1ccc(-n2c(CCC(=O)O)ccc2-c2ccccc2)cc1O [Compound 21]	75.3	89.1	96			
CCOC(=O)c1ccc(-n2c(CCC(=O)O)ccc2-c2cccs2)cc1O [Compound 22]	71.7	73.4	124			
CCOC(=O)c1ccc(-n2c(CCC(=O)O)ccc2-c2ccc(Br)cc2)cc1O [Compound 23]	58	64.9	81.6			
CCOC(=O)c1ccc(-n2c(CCC(=O)O)ccc2-c2ccc(OC)cc2)cc1O [Compound 24]	83.2	166	116			
CCOC(=O)c1ccc(-n2c(CCC(=O)O)ccc2-c2ccccc2)cc1O [Compound 25]	78.3	101	139			
CC(=O)Oc1cc(-n2c(C)ccc2C)ccc1C(=O)O [Compound 66]	3570	67.9				
COc1ccc(/C=N/NC(=O)c2ccc(C(=O)O)c(-n3c(C)ccc3C)c2)c(OC)c1 [Compound 85]		97.3	37.9			
Cc1ccc(C)n1-c1cc(C(=O)N/N=C/c2ccc(N(C)C)cc2)ccc1C(=O)O [Compound 87]	86.5		31.4			
Cc1ccc(C)n1-c1cc(C(=O)N/N=C/c2c(Cl)ncnc2Cl)ccc1C(=O)O [Compound 88]	8080		4.88			
Cc1ccc(C)n1-c1cc(C(=O)N/N=C/c2ccc3ccccc3n2)ccc1C(=O)O [Compound 90]	52.5		17.5			
Cc1ccc(C)n1-c1cc(C(=O)N/N=C/c2cc(F)ccc2C(F)(F)F)ccc1C(=O)O [Compound 91]	4260		3.99			
Cc1ccc(C)n1-c1cc(C(=O)N/N=C/c2cncnc2)ccc1C(=O)O [Compound 93]	263		5.56			
Cc1ccc(C)n1-c1cc(C(=O)N/N=C/c2c[nH]c3cc(F)ccc23)ccc1C(=O)O [Compound 96]		38.1	34.4			
Cc1cc(C)c2c(=O)c(/C=N/NC(=O)c3ccc(C(=O)O)c(-n4c(C)ccc4C)c3)coc2c1 [Compound 97]	1040		5.55			
COc1ncc(/C=N/NC(=O)c2ccc(C(=O)O)c(-n3c(C)ccc3C)c2)c(OC)n1 [Compound 100]		266	7.67			
Cc1ccc(C)n1-c1cc(C(=O)N/N=C/c2ccc3cccnc3n2)ccc1C(=O)O [Compound 105]	118		2.97			
Cc1ccc(C)n1-c1cc(C(=O)N/N=C/c2cccc3ncccc23)ccc1C(=O)O [Compound 106]		144	15.1			
Cc1ccc(C)n1-c1cc(C(=O)N/N=C/c2cc(F)c(F)c(F)c2)ccc1C(=O)O [Compound 107]		32.3	9.3			

SMILES	EC50 ([1]; Homo sapiens, MM1.S, 72 h) [µM]	EC50 ([2]; Homo sapiens, NCI-H2171, 72 h) [µM]	IC50 [3] [µM]	EC50 [1] [µM]	EC50 [2] [µM]	cellular activity/potency in cellular proliferation assay ([1]; MM1.S, prodrug relative to free acid (FIG. 3, FIG. 4))
CC(=O)OCOC(=O)c1ccc(C(=O)N/N=C/c2ccc(-c3nnn[nH]3)cc2)cc1-n1c(C)ccc1C [Compound 109]	9.99	1.02				
CC(=O)OCOC(=O)c1ccc(C(=O)N/N=C/c2c(CO)cnc(C)c2O)cc1-n1c(C)ccc1C [Compound 111]	21.8	2.4				
CC(=O)OCOC(=O)c1ccc(C(=O)N/N=C/c2ccc(S(=O)(=O)O)o2)cc1-n1c(C)ccc1C [Compound 112]	9.25	1.04				
CC(=O)OCOC(=O)c1ccc(-n2c(C)ccc2C)cc1O [Compound 113]				11	2.8	
CC(=O)OCOC(=O)c1cccc(/C=N/NC(=O)c2ccc(C(=O)OCOC(C)=O)c(-n3c(C)ccc3C)c2)c1 [Compound 114]	11.7	1.21				
CC(=O)OCOC(=O)c1ccc(C(=O)N/N=C/c2ccc3cccnc3n2)cc1-n1c(C)ccc1C [Compound 115]	13.6	0.913				
Cc1ccc(C)n1-c1cc(C(=O)N/N=C\c2ccc(C(=O)O)s2)ccc1C(=O)O [Compound 122]		174	0.492			
Cc1ccc(C)n1-c1cc(C(=O)N/N=C\c2ccc(S(=O)(=O)O)cc2)ccc1C(=O)O [Compound 123]		96.4	0.291			
COc1cc(-n2c(C)ccc2C)c(Cl)cc1C(=O)O [Compound 131]		3400	493			
Cc1ccc(C)n1-c1c(C(=O)O)cccc1[N+](=O)[O-] [Compound 132]	647	310				
Cc1ccc(C)n1-c1ccccc1C(N)=O [Compound 133]	450					
Cc1ccc(C)n1-c1cnccc1C(=O)O [Compound 135]	305		6800			
Cc1ccc(C)n1-c1cccc(C(=O)c2ccccc2)c1C(=O)O [Compound 136]		215	94.7			
Cc1c(C)c(C)n(-c2ccccc2C(=O)O)c1C [Compound 138]	194	270				
O=C(O)c1ccccc1-n1c2ccccc2c2ccccc21 [Compound 141]	148	268				
Cc1ccc(C)n1-c1cc(C(=O)NN)ccc1C(=O)O [Compound 142]			7.58	625		
CC(=O)OCOC(=O)c1ccc(-n2c(C)ccc2C)cc1O [Compound 144]				446		
Cc1ccc(C)n1-c1ccc(Cl)cc1C(=O)O [Compound 147]		170	11.5			
CC(=O)OCOC(=O)c1ccccc1-n1ccnc1C [Compound 151]	156	43.5				
Cc1ccc(C)n1-c1cc(C(=O)O)ccc1C(=O)O [Compound 157]	11000					
CC(=O)OCOC(=O)c1ccccc1N1CCN(C)CC1 [Compound 159]	209	84.1				
Cc1ccc(C)n1-c1ccc(C(=O)O)c([N+](=O)[O-])c1 [Compound 163]	98.5		155			
CC(=O)OCOC(=O)c1cccc(/C=N/NC(=O)c2ccc(C(=O)OCOC(C)=O)c(-n3c(C)ccc3C)c2)c1 [acetomoxymethyl ester prodrug]						increases cellular potency

Source: patent US9567301B2, “Pyrrol-1-yl benzoic acid derivatives useful as myc inhibitors” (Whitehead Institute for Biomedical Research, priority 2012, dated 2017)
